From patent publication US20220105150A1, “AMPHIPATHIC ALPHA-HELICAL ANTIMICROBIAL PEPTIDES TREAT INFECTIONS BY GRAM-NEGATIVE PATHOGENS” (priority 2019, published 2022)

Tests used:
[1] = Peptide hydrophobicity by RP-HPLC retention time; format: physicochemical; conditions: RP-HPLC retention time at pH 2, 25° C.
Experimental: Column: Zorbax 300 SB-C8, 150×2.1 mm ID, 5-μm particle size, 300-Å pore size; conditions, linear AB gradient (0.25% acetonitrile/min) at a flow-rate of 0.3 ml/min, where eluent A was 20 mM aq. TFA and eluent B was 20 mM TFA in acetonitrile and the temperature was 25° C. The sequences of the ten peptides (with seven peptides containing Lys specificity determinants at positions 13 and 16 of the non-polar face (see FIG. 1) are shown in Table 1G. Peptide denotions in FIG. 4 have been abbreviated from those shown in Table 1G; for example, D87(Lys1-6 Arg-1) has been shortened to D87(6 Arg-1). For the peptides without specificity determinants, we have added A13/A16 to the peptide denotions. It is interesting that the Dab containing peptides are more hydrophilic than the Dap containing peptides even thought the Dab containing peptides have an additional carbon atom per Dab residue.
Retention behavior in reversed-phase chromatography is an excellent method to represent overall peptide hydrophobicity. […] All ten peptides used in this study could be readily separated by reversed-phase chromatography with the seven peptides with specificity determinants being much more hydrophilic than the three control peptides without specificity determinants (FIG. 4). […]

[2] = Helical structure by circular dichroism spectroscopy; format: physicochemical; conditions: for Aqueous pH 7 [θ]222: 100 mM KCl, 50 mM Na2HPO4/NaH2PO4, pH 7.0; for Aqueous pH 7 [θ]222 / 50% TFE [θ]222: 222 nm; for 50% TFE [θ]222: aqueous buffer containing 50% trifluoroethanol; for Δ[Θ]222 TFE-aqueous: difference 50% TFE minus aqueous; for % Helix Induced: increase in molar ellipticity in the presence of 50% TFE; for Aqueous pH 7 % Helix: relative to molar ellipticity of the peptide in 50% TFE

| SMILES | Hydrophobicity pH 2 tR [1] [min] | Aqueous pH 7 [θ]222 [2] | 50% TFE [θ]222 [2] | Δ[Θ]222 TFE-aqueous [2] | % Helix Induced [2] [%] | Aqueous pH 7 % Helix [2] [%] |
| --- | --- | --- | --- | --- | --- | --- |
| CC(=O)N[C@H](CCCCN)C(=O)N[C@H](CC(C)C)C(=O)N[C@H](CCN)C(=O)N[C@H](CO)C(=O)N[C@H](CC(C)C)C(=O)N[C@H](CC(C)C)C(=O)N[C@H](CCN)C(=O)N[C@@H](C(=O)N[C@H](CC(C)C)C(=O)N[C@H](CO)C(=O)N[C@H](CCN)C(=O)N[C@H](C)C(=O)N[C@H](C)C(=O)N[C@H](C)C(=O)N[C@H](C)C(=O)N[C@H](C)C(=O)N[C@H](CC(C)C)C(=O)N[C@H](CCN)C(=O)N[C@@H](C(=O)N[C@H](CC(C)C)C(=O)N[C@H](CC(C)C)C(=O)N[C@H](CCN)C(=O)N[C@H](C)C(=O)N[C@H](CC(C)C)C(=O)N[C@H](CO)C(=O)N[C@H](CCN)C(N)=O)[C@H](C)O)[C@H](C)O [D86(K13A/K16A)-(Lys^1-6Dab-1), Ac-KL(Dab)SLL(Dab)TLS(Dab)AAAAAL(Dab)TLL(Dab)ALS(Dab)-amide] | 158.3 | 2,308 mdeg cm^2/(dmol*res) | 18,731 mdeg cm^2/(dmol*res) | 16,423 mdeg cm^2/(dmol*res) | 88 | 12 |
| CC(=O)N[C@H](CCCCN)C(=O)N[C@H](CC(C)C)C(=O)N[C@H](CN)C(=O)N[C@H](CO)C(=O)N[C@H](CC(C)C)C(=O)N[C@H](CC(C)C)C(=O)N[C@H](CN)C(=O)N[C@@H](C(=O)N[C@H](CC(C)C)C(=O)N[C@H](CO)C(=O)N[C@H](CN)C(=O)N[C@H](C)C(=O)N[C@H](C)C(=O)N[C@H](C)C(=O)N[C@H](C)C(=O)N[C@H](C)C(=O)N[C@H](CC(C)C)C(=O)N[C@H](CN)C(=O)N[C@@H](C(=O)N[C@H](CC(C)C)C(=O)N[C@H](CC(C)C)C(=O)N[C@H](CN)C(=O)N[C@H](C)C(=O)N[C@H](CC(C)C)C(=O)N[C@H](CO)C(=O)N[C@H](CN)C(N)=O)[C@H](C)O)[C@H](C)O [D105(K13A/K16A)-(Lys^1-6Dap-1), Ac-KL(Dap)SLL(Dap)TLS(Dap)AAAAAL(Dap)TLL(Dap)ALS(Dap)-amide] | 172.3 | 9,577 mdeg cm^2/(dmol*res) | 18,038 mdeg cm^2/(dmol*res) | 8,461 mdeg cm^2/(dmol*res) | 47 | 53 |
